Measurements as given in article PMC5303003 (Bioorganic & medicinal chemistry, 2017).
Read-outs that look alike come from different tables or passages of the source. Each block holds one molecule with its values, some of them ahead of it.

Key:
σ1 receptor [1] = biological target: T1, σ1 receptor (Cavia porcellus, UniProt Q60492); details: read-out: Ki-σ1 of racemic compounds, previously reported; cited from earlier work
σ1 receptor [2] = details: cited from earlier work; for Ki: read-out: Ki-σ1
σ1 receptor [3] = biological target: T1, σ1 receptor; experiment: σ1 receptor competitive binding assay; details: Ki σ1, (+)-isomer, guinea pig brain membranes, mean ± SEM
[4] = biological target: emopamil binding protein (EBP); details: read-out: Ki for emopamil binding protein (EBP); cited from earlier work
[5] = biological target: vesicular acetylcholine transporter (VAChT); details: cited from earlier work
σ1 receptor [6] = experiment: MicroPET blocking study with σ1 ligand pretreatment in nonhuman primate; assay type: in vivo, cynomolgus macaque; details: 1.0 mg/kg i.v. 5 min prior to tracer injection, NHP, versus baseline
σ2 receptor = details: read-out: Ki-σ2; cited from earlier work

T1 sequence (Q60492 whole entry): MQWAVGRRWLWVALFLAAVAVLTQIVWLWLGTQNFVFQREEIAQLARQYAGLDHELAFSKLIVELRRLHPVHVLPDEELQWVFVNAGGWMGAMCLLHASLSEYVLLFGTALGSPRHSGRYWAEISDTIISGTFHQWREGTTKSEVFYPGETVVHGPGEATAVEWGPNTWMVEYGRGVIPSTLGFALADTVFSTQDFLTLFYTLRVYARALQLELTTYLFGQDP

Compound: O=C(c1ccc(F)cc1)C1CCN(C2CCN(Cc3ccc(F)cc3)CC2O)CC1 (racemic) [14a]
- Ki (σ1 receptor [1]): 0.48 nM

Compound: COc1ccc(CCN2CCN(CCCc3ccccc3)CC2)cc1O[11CH3] [[^11C]SA4503, 1-(4-methoxy-3-(methoxy-^11C)phenethyl-^11C)-4-(3-phenyl-propyl)piperazine]
- selectivity for σ1 over VAChT (σ1 receptor [2]): 11 fold
- selectivity for σ1 over σ2 receptor (σ1 receptor [2]): 55 fold

- Ki (σ1 receptor [3]): 0.14 ± 0.02 nM
Compound: O=C(c1ccc(F)cc1)C1CCN(C2CCN(Cc3ccc(F)cc3)CC2O)CC1 (single isomer, unassigned; (+)) [(+)-14a]

Compound: COc1ccc(CCN2CCN(CCCc3ccccc3)CC2)cc1OC [SA4503]
- Ki [4]: 1.7 nM
- Ki ([5]; read-out: Ki for VAChT): 50 nM

Compound: O=c1sc2cc(CCCF)ccc2n1CCN1CCCCCC1 [[^18F]FTC-146, ^18F-6-(3-fluoropropyl)-3-(2-(azepan-1 yl)ethyl)benzo-[d]thiazol-2(3H)-one]
- Ki (σ1 receptor [2]): 0.0025 nM
- Ki ([5]; read-out: Ki-VAChT): 450 nM

Compound: O=C(Cc1ccccc1F)NC1CCC(Cc2ccccc2)CC1 (centres unmarked) [Yun122, N-(4-benzylcyclohexyl)-2-(2-fluorophenyl)acetamide]
- effect of pretreatment on brain uptake of (−)-[18F]TZ3108 (σ1 receptor [6]): significantly reduced
- Ki (σ1 receptor [2]): 3.6 nM
- Ki (σ2 receptor): 667 nM
